Entries after “also recorded” stand apart in the source; their conditions may differ.
Columns and labels:
[1] = tested on: Hs0578t cells; assay: growth inhibition of estrogen negative human breast cancer cell line Hs0578t in culture; format: cell-based; conditions: for IC50: Homo sapiens, 120 h, approximate, estimated from manually fitted best fit curve, cell counts five days after seeding; for IC50 / inhibition of Hs0578t cell growth, by concentration: 10^-15 M to 10^-5 M; for inhibition of Hs0578t cell growth, by concentration: inhibitory = proliferation decreased by 20% or more vs controls; for comparative assessment of potency / maximal inhibition, Hs0578t cell growth: summary statement
Description: (§1) The above examples were tested for their ability to inhibit the growth of both estrogen positive (MCF-7) and estrogen negative (Hs0578t) human breast cancer cell lines in culture. […] MCF-7 cells were maintained in Dulbecco's modified Eagle's medium (DMEM), supplemented with 10% fetal bovine serum (FBS), penicillin (10,000 units/ml) and streptomycin (10 mg/ml) at 37° C. in a humidified atmosphere containing 5% CO2. Hs0578t cells were maintained under similar conditions, however DMEM containing high glucose was used and 10 ug/ml of insulin was added to the medium. Prior to each experiment, cells from stock flasks were suspended by treatment with 0.2% EDTA in phosphate buffered saline (pH 7.3). The cells were then centrifuged at 1000 rpm for 7 minutes, then resuspended in fresh medium and counted on a hemocytometer. Cells were adjusted to a density of 3.0×10^6 /plate in 5 mls of supplemented plating medium. After 5 hours, the plating medium was replaced with fresh medium containing either melatonin or the above examples in concentrations ranging from 10^-15 M to 10^-5 M. These compounds were initially dissolved in ethanol and diluted to the appropriate final concentration with DMEM; the final concentration of ethanol per plate was 0.005%. Control cells were exposed to the ethanol vehicle alone (0.005%). Five days after initial seeding, the cells were resuspended with PBS-EDTA and counted on a hemocytometer to determine the total cell counts per plate. Each experiment was run using triplicate plates for each concentration of melatonin or above example as well as the vehicle controls. Cell growth in each of the experimental plates was expressed as a percent of control growth (100%). A given concentration of either an above example or of melatonin was considered to be inhibitory if it decreased cell proliferation by 20% or more as compared with controls. Since most of the dose-response curves were irregular, the approximate IC50 for each example was estimated from a best fit (manually fitted) curve spanning from the 100% control growth level to the maximal inhibitory concentration of that example. Effects of the above examples on estrogen receptor positive and estrogen receptor negative human breast cancer cell lines (MCF-7 and Hs0578t, respectively) are summarized in FIGS. 1-15, and discussed below. FIGS. 1-6 summarize effects on the MCF-7 cell line, while FIGS. 7-15 describe effects on the Hs0578t cell line.

[2] = tested on: MCF-7 cells; assay: growth inhibition of estrogen positive human breast cancer cell line MCF-7 in culture; format: cell-based; conditions: for inhibition of MCF-7 cell growth, by concentration: 10^-15 M to 10^-5 M, inhibitory = proliferation decreased by 20% or more vs controls; for comparative assessment of potency / maximal inhibition, MCF-7 cell growth: summary statement; for potency relative to melatonin (times more potent), MCF-7 cell growth: compared with melatonin IC50
Description: as §1

[3] = tested on: mammary tumors; conditions: melatonin administration; cited from earlier work
[4] = tested on: MCF-7 cells; conditions: reference molecule, known activity; cited from earlier work
[5] = tested on: Hs0578t cells; conditions: reference molecule, known activity; high concentrations; cited from earlier work
[6] = tested on: chicken retina; conditions: Dubocovich 1984; cited from earlier work
[7] = tested on: frog skin; conditions: Heward and Hadley 1975; cited from earlier work
[8] = Frohn et al.; Clemens et al.; cited from earlier work

CC(=O)NCCc1c(Cc2ccccc2)[nH]c2ccccc12 [Example #8, 2-Benzyl-3-Ethylacetamidoindole]
IC50 [1]: ~0.1 nM

O=C(NCCc1c[nH]c2ccccc12)OCc1ccccc1 [Example #2, N-Benzyloxycarbonyltryptamine]
inhibition of Hs0578t cell growth, by concentration [1]: inhibits Hs0578t cell growth at 10^-11 M and 10^-9 M | comparative assessment of potency / maximal inhibition, Hs0578t cell growth [1]: highly potent inhibitor of both cell lines, but also induces in both a substantial inhibitory response at low concentrations | inhibition of MCF-7 cell growth, by concentration [2]: inhibition of MCF-7 cell growth at all concentrations for Examples #2 and 9, with the exceptions of Example #2 at 10^-13 M | comparative assessment of potency / maximal inhibition, MCF-7 cell growth [2]: elicits the best maximal inhibitory response; also recorded: highly potent inhibitor of both cell lines, but also induces in both a substantial inhibitory response at low concentrations

CC(=O)NCCc1c(Cc2ccc(C)cc2)[nH]c2ccccc12 [Example #10, 2-(4-Tolylmethyl)-3-Ethylacetamidoindole]
inhibition of Hs0578t cell growth, by concentration [1]: no inhibition of Hs0578t cell growth was observed | inhibition of MCF-7 cell growth, by concentration [2]: inhibits MCF-7 cell growth at 10^-15 M, 10^-13 M, and 10^-11 M

COc1ccc2[nH]cc(CCNC(C)=O)c2c1 [melatonin, 5-methoxy-N-actyltryptamine]
inhibition of Hs0578t cell growth, by concentration [1]: no inhibitory effect in most experiments | effect on mammary carcinogenesis [3]: melatonin administration has been shown to inhibit | inhibition of growth of estrogen positive cell lines [4]: known to inhibit growth of estrogen positive cell lines | inhibition of growth of estrogen negative cell lines such as Hs0578t [5]: at high concentrations, can inhibit estrogen negative cell lines such as Hs0578t

COc1ccc2[nH]c3c(c2c1)CCN(C(C)=O)C3C (stereo not drawn) [Example #3, 1-Methyl-2-N-Acetyl-6-Methoxy-1,2,3,4-Tetrahydro-β-Carboline]
inhibition of Hs0578t cell growth, by concentration [1]: All concentrations of these compounds were inhibitory to cell growth | inhibition of MCF-7 cell growth, by concentration [2]: inhibited MCF-7 cell growth at all concentrations

CC(=O)N1CCc2c([nH]c3ccc(OCc4ccccc4)cc23)C1C (stereo not drawn) [Example #7, 1-Methyl-2-N-Acetyl-6-Benzyloxy-1,2,3,4-Tetrahydro-β-Carboline]
inhibition of Hs0578t cell growth, by concentration [1]: All concentrations of these compounds were inhibitory to cell growth, with the exception of Example #7 at 10^-11 M | IC50 [1]: ~10 nM | inhibition of MCF-7 cell growth, by concentration [2]: All concentrations of Example #7 were inhibitory | Emax at 1 fM ([2]; Homo sapiens, MCF7, at 10^-15 M, read-out: maximal effect, inhibition (MCF-7 cell growth)): 37% | potency relative to melatonin (times more potent), MCF-7 cell growth [2]: 100 times

COc1ccc(Cc2[nH]c3ccccc3c2CCNC(C)=O)cc1 [Example #11, 2-(4-Methoxyphenyl)Methyl-3-Ethylacetamidoindole]
inhibition of Hs0578t cell growth, by concentration [1]: no inhibition of Hs0578t cell growth was observed | inhibition of MCF-7 cell growth, by concentration [2]: inhibits MCF-7 cell growth at 10^-15 M and 10^-13 M | comparative assessment of potency / maximal inhibition, MCF-7 cell growth [2]: not only a highly potent compound, but it elicits an impressive maximal inhibitory response at a very low concentration

CC(=O)NCCc1c[nH]c2ccccc12 [N-acetyltryptamine]
antagonism of inhibitory effect of melatonin in chicken retina [6]: competitively antagonized the inhibitory effect of melatonin in the chicken retina | melatonin blocking activity (frog skin lightening) [7]: melatonin blocking activity

COc1ccc2[nH]c(Cc3ccccc3)c(CCNC(C)=O)c2c1 [Example #4, 2-Benzyl-3-Ethylacetamido-5-Methoxyindole]
inhibition of Hs0578t cell growth, by concentration [1]: inhibits Hs0578t cell growth at 10^-13 M and 10^-7 M | comparative assessment of potency / maximal inhibition, Hs0578t cell growth [1]: appears to be the most potent inhibitor of Hs0578t cells | inhibition of MCF-7 cell growth, by concentration [2]: All concentrations of Example #4 were inhibitory to cell growth | potency relative to melatonin (times more potent), MCF-7 cell growth [2]: 60 times

CC(=O)NCCn1c(C)ccc1C [Example #1]
stimulation of Hs0578t cell growth ([1]; 10^-9 M): cell growth is actually stimulated at 10^-9 M | inhibition of Hs0578t cell growth, by concentration [1]: inhibition of Hs0578t cell growth only at 10^-5 M | IC50 [1]: ~6 nM | inhibition of MCF-7 cell growth, by concentration [2]: all concentrations except 10^-11 M and 10^-7 M inhibited MCF-7 cell growth

CC(=O)NCCc1c[nH]c2ccc(O)cc12 [N-acetylserotonin]
melatonin blocking activity (frog skin lightening) [7]: melatonin blocking activity

CCC(=O)NCCc1c(Cc2ccccc2)[nH]c2ccccc12 [Example #5, 2-Benzyl-N-Propionyltryptamine]
inhibition of Hs0578t cell growth, by concentration [1]: no inhibition of Hs0578t cell growth was observed | concentration at which the maximal effect was seen (MCF-7) [2]: 10^-5 M | inhibition of MCF-7 cell growth, by concentration [2]: inhibited cell growth at all concentrations except 10^-13 M, 10^-11 M and 10^-7 M

COc1cc2c(CCNC(C)=O)c(C)[nH]c2c(Cl)c1Cl [2-methyl-6,7-dichloromelatonin]
metabolic stability [8]: improved metabolic stability

CC(=O)NCCc1c(Cc2cccc3ccccc23)[nH]c2ccccc12 [Example #9]
inhibition of Hs0578t cell growth, by concentration [1]: inhibits Hs0578t cell growth at 10^-5 M and 10^-7 M | IC50 [1]: ~4 nM | comparative assessment of potency / maximal inhibition, Hs0578t cell growth [1]: shows the best maximal inhibition of growth | inhibition of MCF-7 cell growth, by concentration [2]: inhibition of MCF-7 cell growth at all concentrations for Examples #2 and 9, with the exceptions of Example #2 at 10^-13 M and Example #9 at 10^-13 M and 10^-5 M

CC(=O)N1CCc2c([nH]c3ccccc23)C1 [Example #6, 2-N-Acetyl-1,2,3,4-Tetrahydro-β-Carboline]
inhibition of MCF-7 cell growth, by concentration [2]: All concentrations except 10^-13 M and 10^-5 M were inhibitory to MCF-7 cell growth | comparative assessment of potency / maximal inhibition, MCF-7 cell growth [2]: appears to be the most potent inhibitor of MCF-7 cell growth
